Values of other authors, collected in patent US11938211B2, “Process for coloring keratinous material comprising the use of an organosilicon compound, an effect pigment, a further coloring compound and a film-forming polymer I” (Henkel AG & Co. KGaA, priority 2019, dated 2024).

Details: 25° C.

solubility in water (in words) | Structure (SMILES) | solubility in water
 | CCN(Cc1cccc(S(=O)(=O)[O-])c1)c1ccc(C(=C2C=CC(=[N+](CC)Cc3cccc(S(=O)(=O)[O-])c3)C=C2)c2ccccc2S(=O)(=O)[O-])cc1.[Na+].[Na+] [Acid Blue 9] | more than 20 % by weight
 | O=S(=O)([O-])c1ccc(N=Nc2c(O)ccc3ccccc23)cc1.[Na+] [Acid Orange 7, sodium salt of 4-[(2-hydroxy-1-naphthyl)azo]benzene sulphonate] | more than 7 g/L
 | Nc1cc(S(=O)(=O)[O-])cc2cc(S(=O)(=O)[O-])c(N=Nc3ccccc3)c(O)c12.[Na+].[Na+] [Acid Red 33, disodium salt of 5-amino-4-hydroxy-3-(phenylazo)-naphthalene-2,7-disulphonate] | 2500 µg/mL
 | O=C([O-])c1c(Cl)c(Cl)c(Cl)c(Cl)c1-c1c2c(Br)cc(=O)c(Br)c-2oc2c(Br)c(O)cc(Br)c12.O=C([O-])c1c(Cl)c(Cl)c(Cl)c(Cl)c1-c1c2c(Br)cc(=O)c(Br)c-2oc2c(Br)c(O)cc(Br)c12.[Na+].[Na+] [Acid Red 92, disodium salt of 3,4,5,6-tetrachloro-2-(1,4,5,8-tetrabromo-6-hydroxy-3-oxoxanthen-9-yl)benzoic acid] | greater than 10 g/L
highly soluble | O=C([O-])C1=NN(c2ccc(S(=O)(=O)[O-])cc2)C(=O)C1N=Nc1ccc(S(=O)(=O)[O-])cc1.[Na+].[Na+].[Na+] (centres unmarked) [Acid Yellow 23, trisodium salt of 4,5-dihydro-5-oxo-1-(4-sulfophenyl)-4-((4-sulfophenyl)azo)-1H-pyrazole-3-carboxylic acid] | 
